Assay results taken from patent US10131702B2, “Glucagon-GLP-1-GIP triple agonist compounds” (priority 2013, dated 2018).
Where two headings read alike, the source gives them in different places. Numbered stars: 1 amine (or outer) side, 2 acyl side, 3 side chain; on linkers, the order of the positions; unused ones are H or OH. Square brackets hold non-standard residues; d marks the D form. Side chains are listed from the residue outwards. Peptide text beside a SMILES is read from it. * marks the point of attachment. C18 diacid = O=C(O)CCCCCCCCCCCCCCCCC(=O)*; γGlu = O=C(O)[C@H](CCC(=O)[*:2])N[*:1]; Stearoyl = CCCCCCCCCCCCCCCCCC(=O)*; AEEA = NCCOCCOCC(=O)O; Aib = CC(C)(N)C(=O)O

Experiments:
Format in all cases: cell-based
[1] = target: T1, human GIP R (Homo sapiens, UniProt P48546); assay: cAMP induction in HEK293 cells expressing human GIP R (AlphaScreen cAMP kit)
T1 construct: expressed in transfected cells
T1 sequence (P48546 22-466): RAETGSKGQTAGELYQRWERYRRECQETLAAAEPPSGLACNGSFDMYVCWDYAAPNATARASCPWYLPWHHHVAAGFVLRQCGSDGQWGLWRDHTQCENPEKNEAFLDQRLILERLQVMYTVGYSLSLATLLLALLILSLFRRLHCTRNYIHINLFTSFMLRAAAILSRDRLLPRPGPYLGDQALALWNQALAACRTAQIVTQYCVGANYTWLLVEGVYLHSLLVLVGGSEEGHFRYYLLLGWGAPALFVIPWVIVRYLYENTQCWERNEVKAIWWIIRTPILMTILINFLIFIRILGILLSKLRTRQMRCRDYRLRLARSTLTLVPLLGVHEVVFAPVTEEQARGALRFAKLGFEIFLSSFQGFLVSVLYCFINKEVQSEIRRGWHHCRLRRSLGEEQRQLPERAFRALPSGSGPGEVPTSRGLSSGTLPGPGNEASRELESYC
Experimental: (§1) Briefly, HEK293 cells expressing the human GIP R, GLP-1 R or GCG R (stable cell lines generated through transfection of the cDNA for human GIP R, GLP-1 R or GCG R and selection of stable clones) were seeded at 30,000 cells/well in 96-well microtiter plates coated with 0.01% poly-L-lysine, and grown for 1 day in culture in 200 μl growth medium (DMEM, 10% FCS, Penicillin (100 IU/ml), Streptomycin (100 μg/ml)). On the day of analysis, growth medium was removed and the cells were washed once with 150 μl Tyrode's buffer (Tyrode's Salts (9.6 g/l), 10 mM HEPES, pH 7.4). […] The Assay buffer was removed and cells are lysed in 80 μl Lysis buffer (0.1% w/v BSA, 5 mM HEPES, 0.3% v/v Tween-20) per well. From each well 10 μl of lysed cells were transferred to a 384-well plate and mixed with 15 μl bead-mix (1 Unit/15 μl anti-cAMP Acceptor Beads, 1 Unit/15 μl Donor Beads, and 1 Unit/15 μl Biotinylated cAMP in Assay Buffer). The plates were mixed and incubated in the dark for an hour at room temperature before measuring using an Envision™ plate reader (Perkin-Elmer).
(§2) The resulting cAMP curves were plotted as absolute cAMP concentrations (nM) over log (test compound concentration) and analyzed using the curve fitting program XLfit.
(§3) Parameters calculated to describe both the potency as well as the agonistic activity of each test compound on the receptors were:
(§4) EC50, a concentration resulting in a half-maximal elevation of cAMP levels, reflecting the potency of the test compound.

[2] = target: T2, human GLP-1 R (Homo sapiens, UniProt P43220); assay: cAMP induction in HEK293 cells expressing human GLP-1 R (AlphaScreen cAMP kit); conditions: average EC50, cAMP, HEK293 cells expressing human GLP-1 R, read-out: GLP1 R (EC50 in nM)
T2 construct: expressed in transfected cells
T2 sequence (P43220 24-463): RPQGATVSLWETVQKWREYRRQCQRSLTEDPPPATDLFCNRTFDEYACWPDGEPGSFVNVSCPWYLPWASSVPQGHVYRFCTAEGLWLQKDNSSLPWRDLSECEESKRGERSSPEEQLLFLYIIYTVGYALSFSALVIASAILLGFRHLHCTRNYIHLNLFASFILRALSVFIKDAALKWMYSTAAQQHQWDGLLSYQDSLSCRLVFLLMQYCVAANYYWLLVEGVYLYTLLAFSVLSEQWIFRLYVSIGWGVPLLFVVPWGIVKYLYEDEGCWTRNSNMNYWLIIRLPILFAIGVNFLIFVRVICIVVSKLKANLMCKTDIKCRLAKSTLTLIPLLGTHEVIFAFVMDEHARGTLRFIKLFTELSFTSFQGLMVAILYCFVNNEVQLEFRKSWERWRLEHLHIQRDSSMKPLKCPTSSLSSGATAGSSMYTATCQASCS

[3] = target: T3, human GCG R (Homo sapiens, UniProt P47871); assay: cAMP induction in HEK293 cells expressing human GCG R (AlphaScreen cAMP kit)
T3 construct: expressed in transfected cells
T3 sequence (P47871 26-477): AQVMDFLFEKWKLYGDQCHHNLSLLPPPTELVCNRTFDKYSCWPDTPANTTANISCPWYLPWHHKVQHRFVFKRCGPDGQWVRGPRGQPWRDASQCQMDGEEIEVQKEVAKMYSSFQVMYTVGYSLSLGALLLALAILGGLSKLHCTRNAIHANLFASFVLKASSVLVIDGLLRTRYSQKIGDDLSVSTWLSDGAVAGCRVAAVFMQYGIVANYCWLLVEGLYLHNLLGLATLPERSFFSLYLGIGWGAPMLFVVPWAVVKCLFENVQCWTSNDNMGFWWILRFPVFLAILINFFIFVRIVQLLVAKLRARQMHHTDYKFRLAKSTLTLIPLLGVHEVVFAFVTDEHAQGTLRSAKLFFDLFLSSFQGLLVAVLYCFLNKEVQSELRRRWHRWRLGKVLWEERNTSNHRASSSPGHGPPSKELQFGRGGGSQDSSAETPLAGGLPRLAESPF
Experimental: as §1, §2, §3, §4

[4] = Table 2b (most comprehensive data), average EC50, cAMP, read-out: GIP R (EC50 in nM)
[5] = Table 2b (most comprehensive data)
[6] = Table 2b (most comprehensive data), average EC50, cAMP, HEK293 cells expressing human GCG R, read-out: GCG R (EC50 in nM)
[7] = GIP R (EC50 in nM), Table 2, average EC50, cAMP
[8] = GIP R (EC50 in nM), Table 2b (most comprehensive data), average EC50, cAMP

SMILES	EC50 [1, 4] [nM]	EC50 [2, 5] [nM]	EC50 [3, 6] [nM]	EC50 [1, 7] [nM]	EC50 [1, 8] [nM]	EC50 ([2]; Table 2) [nM]	EC50 [3] [nM]	EC50 ([1]; Table 2, average EC50, cAMP, read-out: GIP R (EC50 in nM)) [nM]	EC50 ([3]; Table 2, average EC50, cAMP, HEK293 cells expressing human GCG R, read-out: GCG R (EC50 in nM)) [nM]
CC[C@H](C)[C@H](NC(=O)[C@H](CO)NC(=O)[C@H](Cc1ccc(O)cc1)NC(=O)[C@H](CC(=O)O)NC(=O)[C@H](CO)NC(=O)[C@@H](NC(=O)[C@H](Cc1ccccc1)NC(=O)[C@@H](NC(=O)CNC(=O)[C@H](CCC(N)=O)NC(=O)C(C)(C)NC(=O)[C@@H](N)Cc1ccc(O)cc1)[C@@H](C)O)[C@@H](C)O)C(=O)N[C@@H](Cc1ccc(O)cc1)C(=O)N[C@@H](CC(C)C)C(=O)N[C@@H](CCC(=O)O)C(=O)N[C@@H](CCCCN)C(=O)N[C@@H](CCCCNC(=O)COCCOCCNC(=O)COCCOCCNC(=O)CC[C@H](NC(=O)CCCCCCCCCCCCCCCCC(=O)O)C(=O)O)C(=O)N[C@@H](C)C(=O)N[C@@H](C)C(=O)N[C@@H](CCCCN)C(=O)N[C@@H](CCC(=O)O)C(=O)N[C@@H](Cc1ccccc1)C(=O)N[C@H](C(=O)N[C@@H](CCC(=O)O)C(=O)N[C@@H](Cc1c[nH]c2ccccc12)C(=O)N[C@@H](CC(C)C)C(=O)N[C@@H](CC(C)C)C(=O)N[C@@H](CO)C(=O)N[C@@H](C)C(=O)NCC(=O)N1CCC[C@H]1C(=O)N[C@@H](CO)C(=O)N[C@@H](CO)C(=O)NCC(=O)N[C@@H](C)C(=O)N1CCC[C@H]1C(=O)N1CCC[C@H]1C(=O)N1CCC[C@H]1C(=O)N[C@@H](CO)C(N)=O)C(C)C [Compound 38] (H-Y[Aib]QGTFTSDYSIYLEKK([AEEA-AEEA-γGlu-C18 diacid])AAKEFVEWLLSAGPSSGAPPPS-NH2)	0.064	0.015	0.27						
CC[C@H](C)[C@H](NC(=O)[C@H](CO)NC(=O)[C@H](Cc1ccc(O)cc1)NC(=O)[C@H](CC(=O)O)NC(=O)[C@H](CO)NC(=O)[C@@H](NC(=O)[C@H](Cc1ccccc1)NC(=O)[C@@H](NC(=O)CNC(=O)[C@H](CCC(N)=O)NC(=O)C(C)(C)NC(=O)[C@@H](N)Cc1ccc(O)cc1)[C@@H](C)O)[C@@H](C)O)C(=O)N[C@@H](Cc1ccc(O)cc1)C(=O)N[C@@H](CC(C)C)C(=O)N[C@@H](CC(=O)O)C(=O)N[C@@H](CO)C(=O)N[C@@H](CCCCN)C(=O)N[C@@H](C)C(=O)N[C@@H](C)C(=O)N[C@@H](Cc1c[nH]cn1)C(=O)N[C@@H](CC(=O)O)C(=O)N[C@@H](Cc1ccccc1)C(=O)N[C@H](C(=O)N[C@@H](CCC(=O)O)C(=O)N[C@@H](Cc1c[nH]c2ccccc12)C(=O)N[C@@H](CC(C)C)C(=O)N[C@@H](CC(C)C)C(=O)N[C@@H](CCCNC(=N)N)C(=O)N[C@@H](C)C(N)=O)C(C)C [Compound 12] (HELM PEPTIDE1{Y.[Aib].Q.G.T.F.T.S.D.Y.S.I.Y.L.D.S.K.A.A.H.D.F.V.E.W.L.L.R.A.[am]}$$$$V2.0)				0.084	0.012	0.012	0.076		
CC[C@H](C)[C@H](NC(=O)[C@H](CO)NC(=O)[C@H](Cc1ccc(O)cc1)NC(=O)[C@H](CC(=O)O)NC(=O)[C@H](CO)NC(=O)[C@@H](NC(=O)[C@H](Cc1ccccc1)NC(=O)[C@@H](NC(=O)CNC(=O)[C@H](CCC(N)=O)NC(=O)C(C)(C)NC(=O)[C@@H](N)Cc1ccc(O)cc1)[C@@H](C)O)[C@@H](C)O)C(=O)N[C@@H](Cc1ccc(O)cc1)C(=O)N[C@@H](CC(C)C)C(=O)N[C@@H](CC(=O)O)C(=O)N[C@@H](CO)C(=O)N[C@@H](CCCCN)C(=O)N[C@@H](C)C(=O)N[C@@H](C)C(=O)N[C@@H](Cc1c[nH]cn1)C(=O)N[C@@H](CC(=O)O)C(=O)N[C@@H](Cc1ccccc1)C(=O)N[C@H](C(=O)N[C@@H](CC(N)=O)C(=O)N[C@@H](Cc1c[nH]c2ccccc12)C(=O)N[C@@H](CC(C)C)C(=O)N[C@@H](CC(C)C)C(=O)N[C@@H](CO)C(=O)N[C@@H](C)C(N)=O)C(C)C [Compound 11] (HELM PEPTIDE1{Y.[Aib].Q.G.T.F.T.S.D.Y.S.I.Y.L.D.S.K.A.A.H.D.F.V.N.W.L.L.S.A.[am]}$$$$V2.0)		0.11		0.28		0.02	0.11		
CCCCCCCCCCCCCCCCCC(=O)N[C@@H](CCC(=O)NCCOCCOCC(=O)NCCOCCOCC(=O)NCCCC[C@H](NC(=O)[C@H](CCCCN)NC(=O)[C@H](CCC(=O)O)NC(=O)[C@H](CC(C)C)NC(=O)[C@H](C)NC(=O)[C@@H](NC(=O)[C@H](CO)NC(=O)[C@H](CC(C)C)NC(=O)[C@H](CC(=O)O)NC(=O)[C@H](CO)NC(=O)[C@@H](NC(=O)[C@H](Cc1ccccc1)NC(=O)[C@@H](NC(=O)CNC(=O)[C@H](CCC(N)=O)NC(=O)C(C)(C)NC(=O)[C@@H](N)Cc1ccc(O)cc1)[C@@H](C)O)[C@@H](C)O)[C@@H](C)CC)C(=O)N[C@@H](C)C(=O)N[C@@H](CCC(N)=O)C(=O)N[C@@H](CCCNC(=N)N)C(=O)N[C@@H](C)C(=O)N[C@@H](Cc1ccccc1)C(=O)N[C@H](C(=O)N[C@@H](CCC(=O)O)C(=O)N[C@@H](Cc1c[nH]c2ccccc12)C(=O)N[C@@H](CC(C)C)C(=O)N[C@@H](CC(C)C)C(=O)N[C@@H](C)C(=O)N[C@@H](CCC(N)=O)C(=O)N[C@@H](CCCCN)C(N)=O)C(C)C)C(=O)O [Compound 48] (H-Y[Aib]QGTFTSDLSIALEKK([AEEA-AEEA-γGlu-Stearoyl])AQRAFVEWLLAQK-NH2)	0.013	0.013	0.19						
CC[C@H](C)[C@H](NC(=O)[C@H](CO)NC(=O)[C@H](Cc1ccc(O)cc1)NC(=O)[C@H](CC(=O)O)NC(=O)[C@H](CO)NC(=O)[C@@H](NC(=O)[C@H](Cc1ccccc1)NC(=O)[C@@H](NC(=O)CNC(=O)[C@H](CCC(N)=O)NC(=O)C(C)(C)NC(=O)[C@@H](N)Cc1ccc(O)cc1)[C@@H](C)O)[C@@H](C)O)C(=O)N[C@@H](Cc1ccc(O)cc1)C(=O)N[C@@H](CC(C)C)C(=O)N[C@@H](CC(=O)O)C(=O)N[C@@H](CCC(=O)O)C(=O)N[C@@H](CCCCN)C(=O)N[C@@H](C)C(=O)N[C@@H](C)C(=O)N[C@@H](CCCCN)C(=O)N[C@@H](CC(=O)O)C(=O)N[C@@H](Cc1ccccc1)C(=O)N[C@H](C(=O)N[C@@H](CCC(=O)O)C(=O)N[C@@H](Cc1c[nH]c2ccccc12)C(=O)N[C@@H](CC(C)C)C(=O)N[C@@H](CC(C)C)C(=O)N[C@@H](CO)C(=O)N[C@@H](C)C(N)=O)C(C)C [Compound 17] (HELM PEPTIDE1{Y.[Aib].Q.G.T.F.T.S.D.Y.S.I.Y.L.D.E.K.A.A.K.D.F.V.E.W.L.L.S.A.[am]}$$$$V2.0)		0.16		0.091	0.013	0.011	0.16		
CC(C)C[C@H](NC(=O)[C@H](CC(C)C)NC(=O)[C@H](Cc1c[nH]c2ccccc12)NC(=O)[C@H](CCC(=O)O)NC(=O)[C@@H](NC(=O)[C@H](Cc1ccccc1)NC(=O)[C@H](CC(=O)O)NC(=O)[C@H](CCCNC(=N)N)NC(=O)[C@H](C)NC(=O)[C@H](C)NC(=O)[C@H](CCCCN)NC(=O)[C@H](CO)NC(=O)[C@H](CC(=O)O)NC(=O)[C@H](CC(C)C)NC(=O)[C@H](Cc1ccc(O)cc1)NC(=O)[C@H](CCCCN)NC(=O)[C@H](CO)NC(=O)[C@H](Cc1ccc(O)cc1)NC(=O)[C@H](CC(=O)O)NC(=O)[C@H](CO)NC(=O)[C@@H](NC(=O)[C@H](Cc1ccccc1)NC(=O)[C@@H](NC(=O)CNC(=O)[C@H](CCC(N)=O)NC(=O)C(C)(C)NC(=O)[C@@H](N)Cc1ccc(O)cc1)[C@@H](C)O)[C@@H](C)O)C(C)C)C(=O)N[C@@H](CO)C(=O)N[C@@H](C)C(N)=O [Compound 6] (HELM PEPTIDE1{Y.[Aib].Q.G.T.F.T.S.D.Y.S.K.Y.L.D.S.K.A.A.R.D.F.V.E.W.L.L.S.A.[am]}$$$$V2.0)				0.34	0.01	0.0095	0.018		
CCCCCCCCCCCCCCCC(=O)N[C@@H](CCC(=O)NCCCC[C@H](NC(=O)[C@H](CO)NC(=O)[C@H](Cc1ccc(O)cc1)NC(=O)[C@H](CC(=O)O)NC(=O)[C@H](CO)NC(=O)[C@@H](NC(=O)[C@H](Cc1ccccc1)NC(=O)[C@@H](NC(=O)CNC(=O)[C@H](CCC(N)=O)NC(=O)C(C)(C)NC(=O)[C@@H](N)Cc1ccc(O)cc1)[C@@H](C)O)[C@@H](C)O)C(=O)N[C@@H](Cc1ccc(O)cc1)C(=O)N[C@@H](CC(C)C)C(=O)N[C@@H](CCC(=O)O)C(=O)N[C@@H](CCCCN)C(=O)N[C@@H](CCCCN)C(=O)N[C@@H](C)C(=O)N[C@@H](C)C(=O)N[C@@H](CCCCN)C(=O)N[C@@H](CCC(=O)O)C(=O)N[C@@H](Cc1ccccc1)C(=O)N[C@H](C(=O)N[C@@H](CCC(=O)O)C(=O)N[C@@H](Cc1c[nH]c2ccccc12)C(=O)N[C@@H](CC(C)C)C(=O)N[C@@H](CC(C)C)C(=O)N[C@@H](CO)C(=O)N[C@@H](C)C(N)=O)C(C)C)C(=O)O [Compound 25] (HELM PEPTIDE1{Y.[Aib].Q.G.T.F.T.S.D.Y.S.K.Y.L.E.K.K.A.A.K.E.F.V.E.W.L.L.S.A.[am]}|PEPTIDE2{[CCCCCCCCCCCCCCCC(=O)[*:2]].[gGlu]}$PEPTIDE1,PEPTIDE2,12:R3-2:R2$$$V2.0)	0.25	0.28				0.28		0.25	0.3
